Assay results taken from patent US20240008971A1, “Ophthalmic Implant” (Nacuity Pharmaceuticals, Inc., priority 2022, published 2024).
Entries after “also recorded” stand apart in the source; their conditions may differ. Each block holds one compound with its values, some of them ahead of it.

What was measured:
[1] = target: glutamate cysteine ligase (GCL, EC 6.3.2.2); settings: read-out: Ki (nonallosteric competitive inhibition of GCL); cited from earlier work
[2] = system: H2O2-induced cataract in isolated porcine lens; test: H2O2-induced cataract in isolated porcine lens; format: cell-based, pigs; settings: for H2O2-induced cataract: 24 hours pre-incubation, then H2O2 plus GO 6 hours
Procedure: Method: Lenses were harvested from fresh eyes from pigs. These lenses were first incubated in 4-5 mL TC-199 medium and 1% pig serum in a 12-well plate for two hours. At the end of the incubation, lenses were imaged under darkfield microscopy and only clear, transparent lenses were used for further experimentation. Lens were pre-incubated with NAC, NACA, diNACA for 24 hours. After the pretreatment, the lenses were transferred to media containing hydrogen peroxide (H2O2) plus GO for maintaining a constant H2O2 level during incubation similarly to a published method (Wang et al., 1997). At the end of the 6-hour incubation, lenses were imaged under darkfield microscopy (FIG. 3).

[3] = oral dose of 600 mg in humans; cited from earlier work
rd10 mice = settings: cited from earlier work
retinas of diabetic rats = settings: cited from earlier work
[4] = Repeated dose topical ocular administration in rabbit: NACA in aqueous humor (LC-MS); format: in vivo, Dutch Belted rabbits
Procedure: A study was conducted to evaluate effects of diNACA or NACA topical ocular dosing in rabbit. Ophthalmic formulations were developed containing either 1% diNACA or 1% NACA that were used for repeated topical ocular instillation to Dutch Belted rabbits. Three animals per group were dosed four times a day at approximately 8:00 AM, 11:00 AM, 2:00 PM, and 4:00 PM on Days 1-6, and once on Day 7 at approximately 8:00 AM, via bilateral topical administration with each test article. Ocular tolerability was assessed at baseline and prior to the first daily dose by means of scoring chemosis, discharge, and hyperemia (Draize scoring). Ocular tissue was harvested at necropsy (Day 7). A qualified analytical LC-MS method was developed and used to quantitate NACA levels in aqueous humor (AH).

rabbit = test: NPI-002 IVT implant single dose 3-week safety study in rabbit; format: in vivo, New Zealand White rabbits; settings: resolved by Day 23, associated with 22-gauge needle injection procedure
Procedure: A study was conducted to evaluate intravitreal injection of di-NACA as suspension or implant and NACA solution in rabbit. The objectives were to assess safety and whether the implant could deliver diNACA, NACA, and NAC to ocular tissues. A sterile intravitreal implant containing diNACA was prepared (Formulation 1896-08, a fast-releasing implant; FIG. 7). Female New Zealand White rabbits were administered two NPI-002 IVT implants per eye (total dose of NPI-002, 0.8 mg/eye). One group of animals received IVT placebo implants without any test article.
Prior to placement on study, an ophthalmic examination was conducted on each rabbit including slit-lamp biomicroscopy and indirect ophthalmoscopy. Ocular findings were scored according to a modified McDonald-Shadduck Scoring.
Clinical ophthalmic examinations were performed at baseline and on Days 8 and 23 post-dose. General health observations were performed daily. Body weights were recorded at baseline and prior to termination.
Sterile NPI-002 or placebo IVT implants were provided pre-loaded in 22 G beveled needle with wire plunger (1 implant/needle) and injected into VH. NPI-002 suspension and NPI-001 solution were prepared in sterile phosphate buffer and injected into VH.
Animals were euthanized on Day 8, 15, or 23, and ocular tissue was collected and […]

[5] = system: GO-induced cataract in isolated rat lens; test: GO-induced cataract in isolated rat lens; format: cell-based, Wistar rats; settings: for lens opacities after GO-cataract induction: 10 mM pre-treatment 18 hours, then 1 μg/mL GO 24 hours, vs GO-cataract induction alone; for visibility of underlying grid after GO-cataract induction: 10 mM pre-treatment, then GO, vs GO group
Procedure: (§1) Lenses were extracted from 3-week-old male or female Wistar rats using an existing Animal Ethics Approval for tissue collection. Rats were euthanized using CO2, eyes were enucleated and lenses dissected from the globe and incubated in either Dulbecco's modified eagle's medium (low glucose; DMEM; Savion et al., 2019) or Media 199, no phenol red with Glutamine, with 1% penicillin, streptomycin, neomycin mixture for 6 hours, under normoxic conditions with 5% CO2. At the end of the 6-hour incubation, lenses were imaged under darkfield and brightfield microscopy and only clear, transparent lenses were used for further experimentation.
(§2) Control group: Lenses were incubated for a further 18 hours at which time, darkfield and brightfield images were taken. Lenses were placed in fresh media and then incubated for another 24 hours in DMEM or M199 with 1% PSN. Images were then taken to assess lens transparency.
(§3) 10 mM diNACA pre-treatment group: After the initial 6-hour incubation, clear lenses were cultured in 10 mM diNACA (NPI-002) for 18 hours. Images were taken, and then lenses were placed in fresh media containing 1 μg/mL of glucose oxidase (GO). Lenses were then incubated for a further 24 hours, after which images were taken to assess lens transparency
(§4) 10 mM NACA pre-treatment group: After the initial 6-hour incubation, clear lenses were cultured in 10 mM NACA (NPI-001) for 18 hours. Images were taken, and then lenses placed in fresh media containing 1 μg/mL of GO. Lenses were then incubated for a further 24 hours, after which images were taken to assess lens transparency
Method: Isolated rat lenses were pre-treated with NACA or diNACA followed by GO.

isolated rat lens = test: Effect of NACA or diNACA alone on rat lens transparency; format: cell-based, Wistar rats; settings: 10 mM, no oxidative agent
Procedure: as §1, §2, §3, §4

Compound: N[C@@H](CCC(=O)N[C@@H](CS)C(=O)NCC(=O)O)C(=O)O [GSH, c-L-glutamyl-L-cysteinyl-glycine]
Ki [1]: 2.3 mM

Compound: CC(=O)N[C@@H](CS)C(=O)O [NAC, N-acetylcysteine]
H2O2-induced cataract [2]: dose-dependently prevented H2O2-induced cataract
time after administration at which no NAC is detectable [3]: 10 to 12 h
oxidative damage, cone survival and function (rd10 mice; rd10 mice, NAC in drinking water, vs untreated): dose-dependent, statistically significant reduction in oxidative damage and improvements in cone survival and function
retinal pathological changes (retinopathy) (retinas of diabetic rats; 3 and 5 months): alleviated the pathological changes
reactive oxygen species contents in the retinas (retinas of diabetic rats; most significantly at 5 months): decreased reactive oxygen species
VEGF and ICAM-1 expression in retinal blood vessels (retinas of diabetic rats; returned to basal levels after 5-month treatment): up-regulation was attenuated

ocular penetration following topical ocular dosing [4]: penetrates the eye
Compound: CC(=O)N[C@@H](CSSC[C@H](NC(C)=O)C(N)=O)C(N)=O [diNACA, (2R,2R′)-3,3′-disulfanediyl bis(2-acetamidopropanamide)]
H2O2-induced cataract [2]: dose-dependently prevented H2O2-induced cataract
H2O2-induced cataract ([2]; listed as NPI-002): prevented oxidative-induced cataract
protective effects on the lens as compared with NAC, NACA ([2]; H2O2-induced cataract): better protective effects on the lens
clinical ophthalmic examination findings on Day 8 (rabbit): Mild to moderate conjunctival congestion, swelling and discharge
lens opacities after GO-cataract induction [5]: reduced lens opacities
lens opacities after GO-cataract induction ([5]; listed as NPI-002): prevented oxidative-induced cataract
visibility of underlying grid after GO-cataract induction [5]: improved grid visibility
lens transparency after compound alone (isolated rat lens): remained absolutely clear and transparent; also recorded: tolerated exposure to diNACA better than NACA
lens transparency after compound alone (isolated rat lens; listed as NPI-002): maintained lens transparency slightly better than NPI-001 (NACA) alone

Compound: N-acetylcysteine amide [NACA]
H2O2-induced cataract [2]: dose-dependently prevented H2O2-induced cataract
lens opacities after GO-cataract induction [5]: reduced opacities compared to cataract induction alone
visibility of underlying grid after GO-cataract induction [5]: more clearly visible
visual parameters (rd10 mice; mouse model of RP): improve, to a greater extent than NAC, visual parameters
preservation of cone function and survival compared to NAC (rd10 mice; rd10 mice, 7-fold lower dose than NAC): greater preservation of cone function and survival
lens transparency after compound alone (isolated rat lens): developed a subtle thin rim opacity on the edge; also recorded: slight ring opacity developed
